Data set [1] is described as follows: Acute toxicity test, single oral dose in SD rats. Type of data set: in vivo. As to conditions: rat, in vivo. Here is the method: (§1) Test samples: Compound 3-2, and Compound 3-6.
(§2) Animal species and number: SD rat; 6 animals per group (half male and half female).
(§3) Administration mode: oral administration by gavage.
Animal grouping and administration dose: vehicle blank group, Compound 3-2 group (500 mg/kg, 1000 mg/kg, 2000 mg/kg), Compound 3-6 group (500 mg/kg, 1000 mg/kg, 2000 mg/kg).
Administration frequency: once.
(§4) Death, morbidity, respiration, secretions, feces, and diet, drinking situation and so on were observed, and the changes in body weight of the rats during the administration period were recorded. The contents of detailed clinical observation included but were not limited to behavioral activity, skin, coat, eyes, ears, nose, abdomen, external genitalia, anus, extremities, feet, and respiration. The animals in each group were euthanized at the end of observation period, and all animals were dissected and subjected to gross observation.

The nature of data set [2]: Safety test for repeated administration for 14 days in SD rats. The class given is in vivo. Particulars: oral gavage once a day for 14 days, 50, 150, 400 mg/kg. The method, then: as §1, §2, §3
Animal grouping and administration dose: vehicle blank group, Compound 3-2 group (50 mg/kg, 150 mg/kg, 400 mg/kg), Compound 3-6 group (50 mg/kg, 150 mg/kg, 400 mg/kg).
Administration frequency: once a day for 14 days.
as §4, with “General clinical observations were performed 2 times a day (once in the morning and once in the afternoon) during the test period. Death,” for “Death,”, “of administration” for “of observation”

The nature of data set [3]: Preliminary safety test, 5-day escalating oral dosing in Balb/c mice. The class given is in vivo. The method, then:
Test samples: Compound 3-2, Compound 3-6, Compound 3-12M, Compound 3-20, and Compound 4-8.
Animal species and number: Balb/c; 6 animals per group (half male and half female).
as §3
Animal grouping and administration dose: vehicle blank group, Compound 3-2 group (200 mg/kg, 400 mg/kg, 800 mg/kg), Compound 3-6 group (200 mg/kg, 400 mg/kg, 800 mg/kg), Compound 3-12M group (200 mg/kg, 400 mg/kg, 800 mg/kg), Compound 3-20 group (200 mg/kg, 400 mg/kg, 800 mg/kg), Compound 4-8 group (200 mg/kg, 400 mg/kg, 800 mg/kg).
Administration frequency: once a day for 5 days.
General clinical observations were performed 2 times a day (once in the morning and once in the afternoon) during the test period. Death, morbidity, respiration, secretions, feces, and diet, drinking situation and so on were observed, and the changes in body weight of the mice during the administration period were recorded. The animals in each group were euthanized after the administration, and all animals were dissected and subjected to gross observation.

Data set [4] deals with NCI-H358 cells. Description: Cell proliferation activity of NCI-H358 by CellTiter-Glo reagent. Type of data set: cell-based. Particulars: Homo sapiens, NCI-H358; test 8, method of test 3; read-out: IC50 of proliferation inhibitory activity of the compound on NCI-H358 cell line. The method, then: NCI-H358 cells in exponential growth phase were digested with trypsin-EDTA, plated in a 96-well plate with 2000-3000 cells per well, and incubated overnight at 37° C. with 5% CO2. […] After the incubation, CellTiter-Glo test reagent with an equal volume was added into each well and the obtained 96-well plate was incubated after shaking. The chemiluminescence values were determined by microplate reader, and the IC50 values of the test compounds inhibiting the proliferation of NCI-H358 cells were fitted and calculated by GraphPad Prism software.
The test method of inhibitory activity was the same as that in Test 3 in “Biological Tests” part.
(In general: In ATP-based viability assays light output follows the ATP content of the culture.)

Data set [5] deals with MIA PaCa-2-derived xenograft tumor. Put plainly: Pharmacodynamics test of MIA PaCa-2-derived xenograft tumor model in nude mice (test 6). The class given is in vivo. Here is the method:
Animal species and number: Balb/c Nude; 6 animals per group.
Test samples: Compound 3-2, Compound 3-6, Compound 3-20, Compound 3-12M.
Test groups: blank solvent control group; Compound 3-2 (10 mg/kg, QD×15 days), Compound 3-6 (10 mg/kg, QD×15 days), Compound 3-20 (10 mg/kg, QD×15 days), Compound 3-12M (10 mg/kg, QD×15 days).
Animal model establishment: MIA paca-2 tumor cells in logarithmic growth phase were cultured in vitro and collected, and inoculated subcutaneously into the right back of nude mice at a quantity of 5×10^6 cells/each. When the tumor volume reached 150-300 mm^3, the tumor-bearing nude mice were randomly grouped. Subsequently, the animals in each group were administered, and the day of the first administration was defined as day 1 of the test.
Administration route and frequency: oral administration by gavage; once a day.
General state observation: observation time and frequency: once a day; observation indexes or contents: including but not limited to administration location, appearance and signs, general behavioral activities, mental status, death and other abnormal performance of the animals. The animals were euthanized at the end of the test.
Tumor volume calculation: V=½×long diameter×short diameter^2 (mm^3). Tumor growth inhibition rate TGI (%) is used to evaluate the tumor inhibition efficacy of the compounds. TGI (%)=[1−(mean tumor volume in treatment group at the end of administration−mean tumor volume in treatment group at the beginning of administration)/(mean tumor volume in control group at the end of administration−mean tumor volume in control group at the beginning of administration)]×100%.

In data set [6] the test system is NCI-H358. Put plainly: Cell proliferation inhibitory activity on NCI-H358, 3D model test (agarose colony formation). Type of data set: cell-based. The method, then:
100 μl of agarose gel with a high concentration was spread in a 96-well plate as the bottom agarose gel layer. Agarose with a low concentration and growth medium containing cells were mixed and then spread on the bottom agar layer, cooled and solidified, then incubated overnight at 37° C. Mother solutions were prepared from the test compounds by using DMSO, and then subjected to gradient elution with RPMI 1640 growth medium. The solutions of test compounds with different concentrations after gradient elution were added to the 96-well plate comprising an upper layer of agar gel-cells. Solvent control well was set up and the plate was incubated in a CO2 incubator. The drug-containing medium was changed during the incubation period and the cell growth situation was observed. After the incubation, the cells were stained with NBT and the number of cell colony formation was counted, and the IC50 values of the compounds inhibiting cell proliferation were derived.

The subject of data set [7] is MIA PaCa-2 cells. Description: Cell proliferation activity of MIA PaCa-2 by CellTiter-Glo reagent. The class given is cell-based. As to conditions: 72 h, CellTiter-Glo. Here is the method:
MIA PaCa-2 cells in exponential growth phase were digested with trypsin-EDTA, plated in a 96-well plate with 2000-3000 cells per well, and incubated overnight at 37° C. with 5% CO2. Mother solutions were prepared from the test compounds by using DMSO, subjected to gradient elution with DMEM growth medium, and then added into the 96-well plate and incubated in an incubator for 72 h at 37° C. with 5% CO2. After the incubation, CellTiter-Glo test reagent with an equal volume was added into each well and the obtained 96-well plate was incubated after shaking. The chemiluminescence values were determined by microplate reader, and the IC50 values of the test compounds inhibiting the proliferation of MIA PaCa-2 cells were fitted and calculated by GraphPad Prism software.
The test method of inhibitory activity was the same as that in Test 2 in “Biological Tests” part.

In data set [8] the test system is Chinese hamster lung fibroblasts (CHL cells). As to conditions: from N Engl J Med 2020;383:1207-1217 supporting information; cited from earlier work.
Data set [9] has as its target T1, human-derived MDR1 (MDR1 coding P-gp) transporter protein (Homo sapiens, UniProt P08183).
T1 construct: expressed in transfected cells; host or cells: membrane vesicles expressing human MDR1
As to conditions: from N Engl J Med 2020;383:1207-1217 supporting information; cited from earlier work.

T1 sequence (P08183 whole entry): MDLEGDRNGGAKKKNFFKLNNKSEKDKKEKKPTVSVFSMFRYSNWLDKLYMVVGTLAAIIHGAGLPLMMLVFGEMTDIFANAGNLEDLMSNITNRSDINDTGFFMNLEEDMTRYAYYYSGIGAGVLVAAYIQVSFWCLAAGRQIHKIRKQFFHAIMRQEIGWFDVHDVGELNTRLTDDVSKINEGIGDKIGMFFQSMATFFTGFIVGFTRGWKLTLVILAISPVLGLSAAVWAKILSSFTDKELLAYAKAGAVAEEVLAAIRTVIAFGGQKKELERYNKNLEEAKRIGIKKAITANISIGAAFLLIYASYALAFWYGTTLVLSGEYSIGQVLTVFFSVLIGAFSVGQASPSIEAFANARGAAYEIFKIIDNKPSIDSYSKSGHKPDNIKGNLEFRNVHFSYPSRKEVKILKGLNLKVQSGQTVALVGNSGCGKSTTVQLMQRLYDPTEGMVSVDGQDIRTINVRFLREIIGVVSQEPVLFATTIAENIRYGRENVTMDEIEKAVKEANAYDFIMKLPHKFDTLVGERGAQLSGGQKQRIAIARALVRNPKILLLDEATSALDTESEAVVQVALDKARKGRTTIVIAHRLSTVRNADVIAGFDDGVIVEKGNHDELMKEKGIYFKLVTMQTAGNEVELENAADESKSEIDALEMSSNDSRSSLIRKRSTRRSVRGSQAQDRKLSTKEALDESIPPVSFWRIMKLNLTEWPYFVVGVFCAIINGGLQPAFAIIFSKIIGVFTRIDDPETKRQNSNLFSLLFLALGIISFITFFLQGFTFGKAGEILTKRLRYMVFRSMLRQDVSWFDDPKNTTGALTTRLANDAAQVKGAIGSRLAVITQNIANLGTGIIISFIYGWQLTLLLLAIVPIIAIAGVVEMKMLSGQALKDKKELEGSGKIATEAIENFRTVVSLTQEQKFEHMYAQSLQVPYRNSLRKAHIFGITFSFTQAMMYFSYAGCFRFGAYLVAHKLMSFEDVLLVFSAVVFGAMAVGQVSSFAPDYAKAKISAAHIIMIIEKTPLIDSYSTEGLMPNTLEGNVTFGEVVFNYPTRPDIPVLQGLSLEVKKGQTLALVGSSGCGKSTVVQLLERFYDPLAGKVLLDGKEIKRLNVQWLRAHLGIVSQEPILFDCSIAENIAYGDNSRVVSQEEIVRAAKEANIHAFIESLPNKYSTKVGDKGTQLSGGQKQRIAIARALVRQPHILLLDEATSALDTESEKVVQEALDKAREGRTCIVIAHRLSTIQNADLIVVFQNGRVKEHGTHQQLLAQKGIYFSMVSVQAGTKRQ

Take `C=CC(=O)N1CCN(c2nc(=O)n(-c3c(C)ccnc3C(C)C)c3nc(-c4c(F)cccc4C=C)c(Cl)cc23)[C@@H](C)C1` [Compound 3-6]: the MTD in data set [1] (both sexes, SD rats, single oral gavage, 500, 1000, 2000 mg/kg, read-out: maximum tolerated dose (MTD)) was not below 2000 mg/kg. Moreover, the “death or morbidity after single dose (in words)” value in data set [1] is on record as “No animals in each group were dead or close to death”. In addition, the “water and food intake, activity and body weight during the administration period (in words)” value in data set [2] is “no significant abnormality was showed”; in data set [3] (oral gavage once a day for 5 days, 200 to 800 mg/kg), “no significant abnormality was showed”. In addition, in data set [3] (both sexes, mouse, in vivo, oral gavage, 5 days, initially suggested, read-out: maximum tolerated dose), the MTD at 5 days was more than 800 mg/kg. In addition, the IC50 was 0.011 µM in data set [4]; less than 0.05 µM in data set [6] (Homo sapiens, NCI-H358, 3D agarose colony formation, NBT staining); less than 0.05 µM in data set [7] (Homo sapiens, MIA PaCa-2, read-out: IC50 value of cell proliferation inhibitory activity of the compound on MIA PaCa-2). Also, in data set [5] (10 mg/kg QD×15 days), the “inhibition effect on the growth of subcutaneously transplanted tumors derived from pancreatic cancer MIA paca-2 cells in nude mice (in words)” value is “significant inhibition effect”. Also, the “Tumor inhibition rate (%)” value in data set [5] (MIA PaCa-2 xenograft, nude mice, 10 mg/kg oral gavage QD×15 days) is listed as “+++ (“+++” represents a tumor inhibition rate of >80%)”. Also, in data set [6] (3D model test), the “anti-cell proliferation activity against KRAS G12C mutant type cells NCI-H358 (in words)” value is “significant anti-cell proliferation activity”. Besides, in data set [7], the “anti-cell proliferation activity against KRAS G12C mutant type cells MIA PaCa-2 (in words)” value is “significant anti-cell proliferation activity”.

Consider `C=CC(=O)N1CCN(c2nc(=O)n(-c3c(C)ccnc3C(C)C)c3nc(-c4c(O)cccc4F)c(F)cc23)[C@@H](C)C1` [AMG510], for which the “chromosome aberration effect test result (in words)” value in data set [8] is reported as “positive result”. Besides, in [9], the “substrate for P-gp (in words)” value is listed as “is a substrate”. Further, the IC50 in data set [4] was 0.041 µM.

Source of the values: patent US20230143751A1, “Aromatic Compound And Use Thereof In Preparing Antineoplastic Drugs” (Shanghai Zheye Biotechnology Co. Ltd., priority 2020, published 2023).
